Biological target: cystic fibrosis transmembrane conductance regulator (CFTR) (Homo sapiens, UniProt P13569)
Assay: inside-out patch clamp, inhibition of ATP-dependent channel open probability
Format: cell-based

Chain of cystic fibrosis transmembrane conductance regulator (CFTR) (P13569 whole entry): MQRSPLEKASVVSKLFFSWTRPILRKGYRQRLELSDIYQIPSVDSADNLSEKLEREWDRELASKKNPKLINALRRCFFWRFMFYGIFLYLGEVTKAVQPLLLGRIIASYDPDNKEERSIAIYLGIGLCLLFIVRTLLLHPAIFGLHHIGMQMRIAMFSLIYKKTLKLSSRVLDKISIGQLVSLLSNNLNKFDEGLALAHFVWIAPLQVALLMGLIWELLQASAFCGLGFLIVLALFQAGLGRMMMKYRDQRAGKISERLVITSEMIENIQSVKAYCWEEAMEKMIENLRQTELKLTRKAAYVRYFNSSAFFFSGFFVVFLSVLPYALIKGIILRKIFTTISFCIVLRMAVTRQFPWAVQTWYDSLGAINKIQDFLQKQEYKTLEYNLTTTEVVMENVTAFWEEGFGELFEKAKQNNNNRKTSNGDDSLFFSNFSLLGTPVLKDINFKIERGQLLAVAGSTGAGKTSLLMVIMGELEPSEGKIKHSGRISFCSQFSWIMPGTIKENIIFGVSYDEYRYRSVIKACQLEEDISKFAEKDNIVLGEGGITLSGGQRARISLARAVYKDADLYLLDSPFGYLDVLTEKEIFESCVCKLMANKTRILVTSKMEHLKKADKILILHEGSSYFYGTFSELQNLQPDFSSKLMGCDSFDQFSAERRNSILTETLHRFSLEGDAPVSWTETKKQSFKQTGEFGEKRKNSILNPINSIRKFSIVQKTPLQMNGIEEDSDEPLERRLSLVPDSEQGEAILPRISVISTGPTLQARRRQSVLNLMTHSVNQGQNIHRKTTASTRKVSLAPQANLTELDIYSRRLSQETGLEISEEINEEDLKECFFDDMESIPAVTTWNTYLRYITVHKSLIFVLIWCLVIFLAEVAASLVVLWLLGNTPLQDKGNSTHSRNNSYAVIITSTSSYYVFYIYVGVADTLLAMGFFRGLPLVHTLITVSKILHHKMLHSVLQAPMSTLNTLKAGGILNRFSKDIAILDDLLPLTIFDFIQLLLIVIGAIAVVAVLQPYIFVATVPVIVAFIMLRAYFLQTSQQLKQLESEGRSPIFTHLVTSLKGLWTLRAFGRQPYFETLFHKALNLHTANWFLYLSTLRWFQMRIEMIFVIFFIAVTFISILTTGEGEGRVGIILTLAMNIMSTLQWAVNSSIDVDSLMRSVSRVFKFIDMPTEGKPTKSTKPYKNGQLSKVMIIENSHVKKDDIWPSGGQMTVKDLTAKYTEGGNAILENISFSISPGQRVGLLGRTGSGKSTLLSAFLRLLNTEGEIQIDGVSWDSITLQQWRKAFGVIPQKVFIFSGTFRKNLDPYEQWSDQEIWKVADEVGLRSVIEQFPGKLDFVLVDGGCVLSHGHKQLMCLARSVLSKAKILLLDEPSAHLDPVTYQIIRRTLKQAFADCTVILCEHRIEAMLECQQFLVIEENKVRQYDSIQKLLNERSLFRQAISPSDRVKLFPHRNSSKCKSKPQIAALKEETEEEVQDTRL

Ki: 16 ± 9 µM
SMILES: Nc1ncnc2c1ncn2[C@@H]1O[C@H](COP(=O)(O)OP(=O)(O)O)[C@@H](O)[C@H]1O [ADP]

Reference: article PMC2216945 (The Journal of General Physiology, 1995)
